Laboratory results from patent US9617256B2 (priority 2007, dated 2017).
Converted amounts (≈) assume the structure as drawn. Where two headings read alike, the source gives them in different places.

Key:
[1] = test system: APAE006 (strain of P. aeruginosa in which all efflux pumps are inactivated); test: microbe, parasite or virus in culture; assay type: cell-based; conditions: Pseudomonas aeruginosa, read-out: MIC APAE006, APAE006, all efflux pumps inactivated
Description: (§1) Bacterial isolates were cultivated from −70° C. frozen stocks by overnight passages at 35° C. in ambient air on Mueller-Hinton agar (Beckton Dickinson, Franklin Lakes, N.J.). Clinical isolates tested were obtained from various geographically diverse hospitals in the US and abroad (Focus Diagnostics, Herndon, Va. and JMI, North Liberty, Iowa). Quality control strains were from the American Type Culture Collection (ATCC; Rockville, Md.). Additional primary panel strains were generated using standard molecular biology techniques.
(§2) Minimum Inhibitory Concentrations (MICs) were determined by the broth microdilution method in accordance with the Clinical and Laboratory Standards Institute (CLSI) guidelines. In brief, organism suspensions were adjusted to a 0.5 McFarland standard to yield a final inoculum between 3×10^5 and 7×10^5 colony-forming units (CFU)/mL. Drug dilutions and inocula were made in sterile, cation adjusted Mueller-Hinton Broth (Beckton Dickinson). An inoculum volume of 100 μL was added to wells containing 100 μL of broth with 2-fold serial dilutions of drug. All inoculated microdilution trays were incubated in ambient air at 35° C. for 18-24 hours. […] Performance of the assay was monitored by the use of laboratory quality-control strains and levofloxacin, a compound with a defined MIC spectrum, in accordance with CLSI guidelines.
(§3) *AECO001 is ATCC25922, AECO063 is ATCC25922 bearing an acrAB mutation, APAE001 is ATCC27853, APAE006 is a strain of P. aeruginosa in which all efflux pumps are inactivated, APAE006+PMBN indicates MICs with the indicated strain in the presence of 8 micrograms per milliliter of polymyxin B nonapeptide, AABA1060 is a clinical isolate of Acinetobacter baumannii, ASAU001 is a laboratory strain of S. aureus (ATCC29213).

[2] = test system: ASAU001 (laboratory strain of S. aureus, ATCC29213); test: MIC broth microdilution, ASAU001; assay type: cell-based; conditions: Staphylococcus aureus, ATCC29213, read-out: MIC ASAU001
Description: as §1, §2, §3

AECO001 (ATCC25922) = test: MIC broth microdilution, AECO001; assay type: cell-based, E. coli; conditions: Escherichia coli
Description: as §1, §2, §3

[3] = test system: AECO063 (ATCC25922 bearing an acrAB mutation); test: microbe, parasite or virus in culture; assay type: cell-based, E. coli; conditions: Escherichia coli, ATCC25922, read-out: MIC AECO063
Description: as §1, §2, §3

[4] = test system: APAE006 in the presence of 8 micrograms per milliliter of polymyxin B nonapeptide; assay type: cell-based, P. aeruginosa; conditions: APAE006 with 8 micrograms per milliliter polymyxin B nonapeptide
Description: as §1, §2, §3

[5] = test system: AABA1060 (clinical isolate of Acinetobacter baumannii); test: MIC broth microdilution, AABA1060; assay type: cell-based; conditions: Acinetobacter baumannii, read-out: MIC AABA1060
Description: as §1, §2, §3

APAE001 (ATCC27853) = test: MIC broth microdilution, APAE001; assay type: cell-based, P. aeruginosa; conditions: Pseudomonas aeruginosa, ATCC27853, read-out: MIC APAE001, APAE001 (ATCC27853)
Description: as §1, §2, §3

[6] = ATCC25922, read-out: MIC AECO001
[7] = ATCC25922, read-out: MIC AECO001 HSA AGP

SMILES	MIC [1] [µg/mL]	MIC [2] [µg/mL]	MIC (AECO001 (ATCC25922); [6]) [µg/mL]	MIC (AECO001 (ATCC25922); [7]) [µg/mL]	MIC [3] [µg/mL]	MIC APAE006 + PMBN [4]	MIC [5] [µg/mL]	MIC (APAE001 (ATCC27853)) [µg/mL]
CC(C)(N)[C@H](NC(=O)c1ccc(C#CC#Cc2ccc(C(F)(F)F)cc2)cc1)C(=O)NO [Example 82-26]	2 to 16 (≈ 4.51 to 36.1 µM)	2 to 16 (≈ 4.51 to 36.1 µM)	< 2	16 to 64 (≈ 36.1 to 144 µM)	< 2	A (MIC's of 2.0 μg/mL or less = A)	2 to 16 (≈ 4.51 to 36.1 µM)	2 to 16 (≈ 4.51 to 36.1 µM)
CC(C)(N)[C@H](NC(=O)c1ccc(C#CC#Cc2cccc(F)c2)cc1)C(=O)NO [Example 82-27]	< 2	16 to 64 (≈ 40.7 to 163 µM)	< 2	2 to 16 (≈ 5.08 to 40.7 µM)	< 2	A (MIC's of 2.0 μg/mL or less = A)	2 to 16 (≈ 5.08 to 40.7 µM)	2 to 16 (≈ 5.08 to 40.7 µM)
CC(C)(N)[C@H](NC(=O)c1ccc(C#CC#Cc2ccc(F)cc2)cc1)C(=O)NO [Example 82-28]	< 2	2 to 16 (≈ 5.08 to 40.7 µM)	< 2	2 to 16 (≈ 5.08 to 40.7 µM)	< 2	A (MIC's of 2.0 μg/mL or less = A)	< 2	2 to 16 (≈ 5.08 to 40.7 µM)
CC(C)(N)[C@H](NC(=O)c1ccc(C#CC#Cc2ccc(O)cc2)cc1)C(=O)NO [Example 83-1, N—((S)-2-Amino-1-hydroxycarbamoyl-2-methyl-propyl)-4-[4-(4-hydroxy-phenyl)-buta-1,3-diynyl]-benzamide]	< 2	16 to 64 (≈ 40.9 to 164 µM)	< 2	2 to 16 (≈ 5.11 to 40.9 µM)	< 2	A (MIC's of 2.0 μg/mL or less = A)	< 2	< 2
C[C@@H](N)[C@H](NC(=O)c1ccc(C#CC#Cc2ccc(O)cc2)cc1)C(=O)NO [Example 83-2]	< 2	16 to 64 (≈ 42.4 to 170 µM)	< 2	16 to 64 (≈ 42.4 to 170 µM)	< 2	A (MIC's of 2.0 μg/mL or less = A)	2 to 16 (≈ 5.3 to 42.4 µM)	< 2
C[C@@H](N)[C@H](NC(=O)c1ccc(C#CC#Cc2ccc(OC3CC3)cc2)cc1)C(=O)NO [Example 84-1, N-((1S,2R)-2-Amino-1-hydroxycarbamoyl-propyl)-4-[4-(4-cyclopropoxy-phenyl)-buta-1,3-diynyl]-benzamide]	2 to 16 (≈ 4.79 to 38.3 µM)	16 to 64 (≈ 38.3 to 153 µM)	< 2	2 to 16 (≈ 4.79 to 38.3 µM)	< 2	A (MIC's of 2.0 μg/mL or less = A)	16 to 64 (≈ 38.3 to 153 µM)	16 to 64 (≈ 38.3 to 153 µM)
C[C@@H](N)[C@H](NC(=O)c1ccc(C#CC#Cc2ccc(CNCC(F)F)cc2)cc1)C(=O)NO [Example 86-1, N-((1S,2R)-2-Amino-1-hydroxycarbamoyl-propyl)-4-(4-{4-[(2,2-difluoro-ethylamino)-methyl]-phenyl}-buta-1,3-diynyl)-benzamide]	< 2	16 to 64 (≈ 35.2 to 141 µM)	< 2	2 to 16 (≈ 4.4 to 35.2 µM)	< 2	A (MIC's of 2.0 μg/mL or less = A)	2 to 16 (≈ 4.4 to 35.2 µM)	< 2
CC(C)(O)[C@H](NC(=O)c1ccc(C#CC#Cc2ccc(CN3CCOCC3)cc2)cc1)C(=O)NO [Example 86-4]	< 2	16 to 64 (≈ 33.6 to 135 µM)	< 2	2 to 16 (≈ 4.21 to 33.6 µM)	< 2	A (MIC's of 2.0 μg/mL or less = A)	2 to 16 (≈ 4.21 to 33.6 µM)	2 to 16 (≈ 4.21 to 33.6 µM)
C[C@@H](N)[C@H](NC(=O)c1ccc(C#CC#Cc2ccc(CNCCF)cc2)cc1)C(=O)NO [Example 86-5]	< 2	16 to 64 (≈ 36.7 to 147 µM)	< 2	16 to 64 (≈ 36.7 to 147 µM)	< 2	A (MIC's of 2.0 μg/mL or less = A)	2 to 16 (≈ 4.58 to 36.7 µM)	< 2
C[C@@H](N)[C@H](NC(=O)c1ccc(C#CC#Cc2ccc(CN3CCS(=O)(=O)CC3)cc2)cc1)C(=O)NO [Example 86-6]	< 2	16 to 64 (≈ 31.5 to 126 µM)	< 2	2 to 16 (≈ 3.93 to 31.5 µM)	< 2	A (MIC's of 2.0 μg/mL or less = A)	2 to 16 (≈ 3.93 to 31.5 µM)	2 to 16 (≈ 3.93 to 31.5 µM)
